Source: patent publication US20230372496A1, “TRICYCLIC HETEROBIFUNCTIONAL COMPOUNDS FOR DEGRADATION OF TARGETED PROTEINS” (C4 Therapeutics, Inc., priority 2020, published 2023)
Read-outs that look alike come from different tables or passages of the source.

Assays:
[1] = molecular target: NSP3 UBL2_PLpro-HA-HiBiT (Severe acute respiratory syndrome coronavirus 2, UniProt P0DTC1); assay: NSP3 UBL2_PLpro-HA-HiBiT degradation assay (cellular) in 293T cells; format: cell-based, Severe acute respiratory syndrome Coronavirus 2 (Sars-CoV-2); details: 6.0 hours; for DC50: read-out: HiBiT-Degradation 293T.234 NSP3_PLpro 6.0 hours (DC50); for Emax: HEK-293T, Emax = residual protein remaining after treatment, read-out: HiBiT-Degradation 293T.234 NSP3_PLpro 6.0 hours (Emax %)
[2] = molecular target: CRBN-DDB1 (Homo sapiens, UniProt Q96SW2); assay: CRBN FP binding assay (fluorescence polarization); details: 150 nM CRBN-DDB1, 5 nM Alexa-647 probe, read-out: FP CRBN_DDB1.3 ka
Description: The determination of the binding constant (KD) of test compounds to CRBN-DDB1 was carried out using an established sensitive and quantitative in vitro fluorescence polarization (FP) binding assay. Control compounds were run on the same plate. Compounds were dispensed from serially diluted DMSO stock supplied by Frontier Scientific Services Inc in low dead volume plates into black 384-well compatible FP plates using acoustic technology to 1% of total reaction volume. Compounds were arranged vertically in rows A through P. Concentrations series are horizontal: columns 1-11, and then duplicates in columns 12-22. Columns 23 and 24 are reserved for 0% (5 nM probe) and 100% controls (protein at high concentration with 5 nM probe), respectively. […] Matching control plates excluding CRBN-DDB1 were used to correct for background fluorescence. Plates were read on an Envision plate reader with appropriate FP filter sets.

[3] = molecular target: cellular cereblon (CRBN) (Homo sapiens, UniProt Q96SW2); assay: NanoBRET CRBN assay, displacement of pomalidomide-NanoBRET tracer in 293T cells
[4] = system: ERK1/2; assay: ERK1/2 degradation, Total ERK HTRF assay in Colo205 cells; format: cell-based; details: 6 h, read-out: ERK1/2 6 h DC50 (Emax %)
Description: Colo205 CCL-222 cells were purchased from ATCC. RPMI 1640 no-phenol red medium and fetal bovine serum (FBS) were purchased from Gibco (Grand Island, NY, USA). Cell culture flasks and 384-well microplates were acquired from VWR (Radnor, PA, USA). Total ERK HTRF assay kits were purchased from Cisbio (64NRKPEH, Bedford, MA, USA).
Degradation of ERK1/2 was determined based on quantification of FRET signal using a Total ERK1/2 HTRF assay kit. Test compounds were added to the 384-well plate from a top concentration of 10 μM with 10 points, half-log titration in duplicates. COL0205 cells were added into 384-well plates at a cell density of 5,000 cells per well. The plates were kept at 37° C. with 5% CO2 for 6 hours. Cells treated in the absence of the test compound were the negative control. Positive control was set by wells containing all reagents but no cells. HTRF regents were added according to manufacturer's instructions with the additional step of lysate denaturation at 95° C. for 10 minutes and cooling to room temperature before antibody addition. Following addition of the antibodies the samples were incubated overnight. FRET signal was acquired on an EnVision™ Multilabel Reader (PerkinElmer, Santa Clara, CA, USA).

[5] = molecular target: T1, CBP/P300 (Homo sapiens, UniProt Q92793); assay: CBP/P300 degradation, Nano-Glo HiBiT lytic assay; format: cell-based; details: HEK293T HiBiT-CBP cells, 6 h incubation; for Emax: HEK-293T
T1 construct: endogenous in cells; host or cells: HEK293T (CRISPR/Cas9 HiBiT knock-in at the CBP locus)
Excerpt: Assay media was DMEM no-phenol red medium and fetal bovine serum (FBS) were purchased from Gibco (Grand Island, N.Y., USA). Nano-Glo®, 1HiBiT Lydc Assay Systeni was purchased from Promega (Madison, Wis. USA). Stable HEK293T cell line with endogenously tagged HiBiT-CBP was generated in house by CRISPR/Cas9 gene editing introducing the HiBiT fusion tag at the N-terminus using homologous directed repair. Cell culture flasks and 384-well microplates were acquired from VWR (Radnor, Pa., USA).
CBP degradation was determined based on quantification of luminescent signal using Nano-Glo® HiBiT Lytic Assay kit. Test compounds were added to the 384-well plate from a top […] with 11 points, half log titration in duplicates, Cells were added into 384-well Corning 3570 plates, (Corning, Tewksbury, MA, USA) at a cell density of 10,000 cells per well in assay media. The plates were incubated at 37° C. with 5% CO2 for 6 hours. The cells treated in the absence of the test compound were the negative control and media was the positive control. After 6-hour incubation, Nano-Glo® HiBiT Lytic Assay reagents were added to the cells, Luminescence was acquired on EnVision™ Multilabel Reader (PerkinElmer, Santa Clara, Calif., USA).

[6] = 1.5 h room temperature, class symbols
[7] = 1.5 h room temperature, numeric bounds

Sequence of CRBN-DDB1 (Q96SW2 whole entry): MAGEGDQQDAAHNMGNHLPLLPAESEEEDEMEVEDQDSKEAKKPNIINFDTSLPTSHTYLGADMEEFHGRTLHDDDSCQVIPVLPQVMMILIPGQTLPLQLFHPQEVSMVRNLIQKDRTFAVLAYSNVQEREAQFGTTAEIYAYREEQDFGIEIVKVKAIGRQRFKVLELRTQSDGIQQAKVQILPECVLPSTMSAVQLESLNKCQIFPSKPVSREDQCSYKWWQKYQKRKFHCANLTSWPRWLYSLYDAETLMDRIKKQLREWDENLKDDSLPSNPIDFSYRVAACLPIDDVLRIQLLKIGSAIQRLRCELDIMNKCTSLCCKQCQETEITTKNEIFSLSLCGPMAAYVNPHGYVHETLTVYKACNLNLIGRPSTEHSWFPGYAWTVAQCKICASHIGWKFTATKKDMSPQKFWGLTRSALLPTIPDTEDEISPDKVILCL
Sequence of CRBN-DDB1 (Q16531 whole entry partner): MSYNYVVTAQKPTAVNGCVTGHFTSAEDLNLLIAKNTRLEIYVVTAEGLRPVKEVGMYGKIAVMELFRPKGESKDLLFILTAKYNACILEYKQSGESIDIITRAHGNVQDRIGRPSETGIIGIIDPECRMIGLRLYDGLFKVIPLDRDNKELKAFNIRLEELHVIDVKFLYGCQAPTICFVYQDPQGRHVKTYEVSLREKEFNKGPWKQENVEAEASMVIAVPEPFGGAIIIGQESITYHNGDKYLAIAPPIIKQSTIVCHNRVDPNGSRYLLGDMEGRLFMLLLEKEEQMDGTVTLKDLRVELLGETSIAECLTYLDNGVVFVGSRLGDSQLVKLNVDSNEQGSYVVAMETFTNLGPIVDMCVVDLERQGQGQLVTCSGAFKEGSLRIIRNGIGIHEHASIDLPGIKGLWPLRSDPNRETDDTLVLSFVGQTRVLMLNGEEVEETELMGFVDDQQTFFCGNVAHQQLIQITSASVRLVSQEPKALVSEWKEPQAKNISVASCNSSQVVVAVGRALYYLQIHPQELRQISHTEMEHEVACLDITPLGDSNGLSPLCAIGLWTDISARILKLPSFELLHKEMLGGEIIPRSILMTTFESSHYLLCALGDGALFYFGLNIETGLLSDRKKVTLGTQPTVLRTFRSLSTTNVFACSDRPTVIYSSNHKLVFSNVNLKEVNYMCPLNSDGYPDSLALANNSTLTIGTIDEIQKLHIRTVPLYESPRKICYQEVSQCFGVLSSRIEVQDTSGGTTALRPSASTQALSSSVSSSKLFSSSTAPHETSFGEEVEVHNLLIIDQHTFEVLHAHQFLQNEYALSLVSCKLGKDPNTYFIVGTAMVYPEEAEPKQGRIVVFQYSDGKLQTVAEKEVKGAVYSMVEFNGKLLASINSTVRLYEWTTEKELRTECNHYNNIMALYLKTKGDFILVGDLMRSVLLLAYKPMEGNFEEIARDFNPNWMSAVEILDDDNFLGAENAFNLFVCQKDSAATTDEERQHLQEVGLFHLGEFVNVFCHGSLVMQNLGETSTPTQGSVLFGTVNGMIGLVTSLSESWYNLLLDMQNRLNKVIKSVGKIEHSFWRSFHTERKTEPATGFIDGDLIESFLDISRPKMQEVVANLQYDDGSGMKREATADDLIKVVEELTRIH
Sequence of cellular cereblon (CRBN) (Q96SW2 whole entry, species assumed): as the sequence (Q96SW2 whole entry) above
T1 sequence (Q92793 whole entry): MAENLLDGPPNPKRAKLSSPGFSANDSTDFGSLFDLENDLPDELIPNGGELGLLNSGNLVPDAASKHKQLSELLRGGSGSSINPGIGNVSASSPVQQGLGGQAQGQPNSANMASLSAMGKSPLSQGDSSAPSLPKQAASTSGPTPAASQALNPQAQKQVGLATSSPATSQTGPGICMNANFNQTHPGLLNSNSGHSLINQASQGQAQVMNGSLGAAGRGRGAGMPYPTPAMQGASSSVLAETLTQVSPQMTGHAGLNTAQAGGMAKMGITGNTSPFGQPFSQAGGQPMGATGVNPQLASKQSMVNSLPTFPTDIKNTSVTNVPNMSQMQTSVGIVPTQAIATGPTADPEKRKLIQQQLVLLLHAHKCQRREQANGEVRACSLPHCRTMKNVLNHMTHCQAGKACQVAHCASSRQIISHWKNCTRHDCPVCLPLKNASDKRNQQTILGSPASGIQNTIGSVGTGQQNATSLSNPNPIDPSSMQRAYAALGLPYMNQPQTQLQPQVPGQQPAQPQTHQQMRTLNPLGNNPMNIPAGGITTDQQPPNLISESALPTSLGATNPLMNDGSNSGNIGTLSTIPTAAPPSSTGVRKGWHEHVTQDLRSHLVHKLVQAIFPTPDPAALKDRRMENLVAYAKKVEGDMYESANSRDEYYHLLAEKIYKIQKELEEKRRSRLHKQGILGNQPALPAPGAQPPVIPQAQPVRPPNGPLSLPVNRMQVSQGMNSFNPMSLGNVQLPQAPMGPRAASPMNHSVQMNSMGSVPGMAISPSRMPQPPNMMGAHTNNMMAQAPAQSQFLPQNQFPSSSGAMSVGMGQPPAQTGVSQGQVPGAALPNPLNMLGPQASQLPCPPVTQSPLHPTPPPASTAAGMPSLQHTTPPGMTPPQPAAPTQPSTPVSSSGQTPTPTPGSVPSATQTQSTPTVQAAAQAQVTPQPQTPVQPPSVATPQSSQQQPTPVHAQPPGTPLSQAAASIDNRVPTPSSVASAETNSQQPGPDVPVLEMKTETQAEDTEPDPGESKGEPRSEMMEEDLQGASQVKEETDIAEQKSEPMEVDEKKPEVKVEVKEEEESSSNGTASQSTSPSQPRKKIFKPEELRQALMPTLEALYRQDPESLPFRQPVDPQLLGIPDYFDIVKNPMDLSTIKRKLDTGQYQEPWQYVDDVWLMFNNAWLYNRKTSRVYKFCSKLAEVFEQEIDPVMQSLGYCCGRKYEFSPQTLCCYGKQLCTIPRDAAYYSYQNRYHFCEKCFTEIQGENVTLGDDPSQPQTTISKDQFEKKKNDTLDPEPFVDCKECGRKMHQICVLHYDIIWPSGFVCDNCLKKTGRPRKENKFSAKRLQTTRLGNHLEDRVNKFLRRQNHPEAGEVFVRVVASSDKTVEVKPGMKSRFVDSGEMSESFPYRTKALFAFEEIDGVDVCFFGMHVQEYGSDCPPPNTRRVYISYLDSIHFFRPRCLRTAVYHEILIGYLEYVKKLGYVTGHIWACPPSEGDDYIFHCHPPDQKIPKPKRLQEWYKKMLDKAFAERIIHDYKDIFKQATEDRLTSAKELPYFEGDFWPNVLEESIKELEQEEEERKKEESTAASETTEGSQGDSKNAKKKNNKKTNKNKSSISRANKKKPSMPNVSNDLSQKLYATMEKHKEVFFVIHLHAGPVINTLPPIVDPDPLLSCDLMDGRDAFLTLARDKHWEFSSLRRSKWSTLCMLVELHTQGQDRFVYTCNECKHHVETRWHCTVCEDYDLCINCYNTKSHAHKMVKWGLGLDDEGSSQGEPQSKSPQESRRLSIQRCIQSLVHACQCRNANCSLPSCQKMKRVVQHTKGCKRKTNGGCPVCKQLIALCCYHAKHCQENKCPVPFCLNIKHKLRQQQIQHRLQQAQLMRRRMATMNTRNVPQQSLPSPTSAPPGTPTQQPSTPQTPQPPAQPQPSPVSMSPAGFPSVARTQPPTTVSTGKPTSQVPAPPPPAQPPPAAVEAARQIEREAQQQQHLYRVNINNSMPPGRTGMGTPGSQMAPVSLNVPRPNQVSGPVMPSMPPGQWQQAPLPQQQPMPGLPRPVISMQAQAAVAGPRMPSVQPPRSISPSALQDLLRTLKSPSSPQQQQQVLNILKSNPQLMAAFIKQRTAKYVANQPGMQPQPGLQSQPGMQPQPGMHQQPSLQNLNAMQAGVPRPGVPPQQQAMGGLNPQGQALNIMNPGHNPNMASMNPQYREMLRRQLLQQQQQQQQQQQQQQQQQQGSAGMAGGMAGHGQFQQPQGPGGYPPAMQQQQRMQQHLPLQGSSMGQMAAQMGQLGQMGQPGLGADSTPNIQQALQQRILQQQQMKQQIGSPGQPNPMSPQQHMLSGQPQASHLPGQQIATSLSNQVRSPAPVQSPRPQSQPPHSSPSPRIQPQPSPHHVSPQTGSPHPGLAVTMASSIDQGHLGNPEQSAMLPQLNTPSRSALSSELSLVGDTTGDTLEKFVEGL

Question: For `CC(c1cccc2c(C#CC3CCN(C(=O)CN4CCC(c5ccc6c7c(cccc57)N(C5CCC(=O)NC5=O)C6=O)CC4)CC3)cccc12)N1CCC(C(=O)NCc2cccc(F)c2)CC1` (stereo not drawn) [Compound 105, 1-[1-[5-[2-[1-[2-[4-[1-(2,6-dioxo-3-piperidyl)-2-oxo-benzo[cd]indol-5-yl]-1-piperidyl]acetyl]-4-piperidyl]ethynyl]-1-naphthyl]ethyl]-N-[(3-fluorophenyl)methyl]piperidine-4-carboxamide], which DC50 [1] is on record?
Answer: Its DC50 is > 10000 nM.

Question: What about the Emax [1] of the same compound?
Answer: Its Emax is 61 to 95%.

Question: How did the DC50 [1] turn out when `CC(c1ccc(C#CC2CCN(C(=O)CN3CCC(c4ccc5c6c(cccc46)C(=O)N5C4CCC(=O)NC4=O)CC3)CC2)c2ccccc12)N1CCC(C(=O)NCc2cccc(F)c2)CC1` (stereo not drawn) [Compound 102, 1-[1-[4-[2-[1-[2-[4-[1-(2,6-dioxo-3-piperidyl)-2-oxo-benzo[cd]indol-6-yl]-1-piperidyl]acetyl]-4-piperidyl]ethynyl]-1-naphthyl]ethyl]-N-[(3-fluorophenyl)methyl]piperidine-4-carboxamide] was run?
Answer: The DC50 was > 10000 nM.

Question: What about the Emax [1] of the same compound?
Answer: Its Emax is 61 to 95%.

Question: Which DC50 [1] does the source give for `CC(c1cccc2c(C#CC3CCN(C(=O)CN4CCC(c5ccc6c7c(cccc57)C(=O)N6C5CCC(=O)NC5=O)CC4)CC3)cccc12)N1CCC(C(=O)NCc2cccc(F)c2)CC1` (stereo not drawn) [Compound 104, 1-[1-[5-[2-[1-[2-[4-[1-(2,6-dioxo-3-piperidyl)-2-oxo-benzo[cd]indol-6-yl]-1-piperidyl]acetyl]-4-piperidyl]ethynyl]-1-naphthyl]ethyl]-N-[(3-fluorophenyl)methyl]piperidine-4-carboxamide] here?
Answer: The DC50 was > 10000 nM.

Question: And the Emax [1]?
Answer: Its Emax is 61 to 95%.

Question: How did the Kd [2, 6] turn out when `Nc1ccc2c3c(cccc13)C(=O)N2C1CCC(=O)NC1=O` (stereo not drawn) was run?
Answer: The Kd was 100 to 1000 nM.

Question: And the IC50 [3]?
Answer: Its IC50 is < 100 nM.

Question: Which Kd ([2]; class symbols) does the source give for `O=C1CCC(N2C(=O)C3CCCc4c(C5CCN(CCCC(=O)N6CC(c7nc8ccc(-c9n[nH]c%10cc%11c(cc9%10)CN(Cc9ccccc9)C(=O)N%11)cc8o7)C6)CC5)ccc2c43)C(=O)N1` (stereo not drawn) here?
Answer: Its Kd is 1000 to 10000 nM.

Question: What about the DC50 [4] of the same compound?
Answer: Its DC50 is 100 to 1000 nM.

Question: For `O=C1CCC(N2C(=O)c3cccc4c(C5CCN(CC(=O)N6CC(c7nc8ccc(-c9n[nH]c%10cc%11c(cc9%10)CN(Cc9ccccc9)C(=O)N%11)cc8o7)C6)CC5)ccc2c34)C(=O)N1` (stereo not drawn), which Kd ([2]; class symbols) is on record?
Answer: The Kd was 1000 to 10000 nM.

Question: What about the DC50 [4] of the same compound?
Answer: Its DC50 is 100 to 1000 nM.

Question: Which DC50 [1] does the source give for `CC(c1ccc(C#CC2CCN(C(=O)CN3CCC(c4ccc5c6c(cccc46)N(C4CCC(=O)NC4=O)C5=O)CC3)CC2)c2ccccc12)N1CCC(C(=O)NCc2cccc(F)c2)CC1` (stereo not drawn) [Compound 103, 1-[1-[4-[2-[1-[2-[4-[1-(2,6-dioxo-3-piperidyl)-2-oxo-benzo[cd]indol-5-yl]-1-piperidyl]acetyl]-4-piperidyl]ethynyl]-1-naphthyl]ethyl]-N-[(3-fluorophenyl)methyl]piperidine-4-carboxamide] here?
Answer: The DC50 was > 10000 nM.

Question: What about the Emax [1] of the same compound?
Answer: Its Emax is 61 to 95%.

Question: With `COC(=O)c1ccc2c3c(cccc13)C(=O)N2C1CCC(=O)NC1=O` (stereo not drawn) as the compound, how does the Kd [2, 6] read?
Answer: The Kd was 100 to 1000 nM.

Question: What about the IC50 [3] of the same compound?
Answer: Its IC50 is < 100 nM.

Question: `N#Cc1ccc2c3c(cccc13)C(=O)N2C1CCC(=O)NC1=O` (stereo not drawn) was tested. Which IC50 [3] did it give?
Answer: Its IC50 is < 100 nM.

Question: How did the DC50 [5] turn out when `CNC(=O)N1CCc2c(c(N3CCCc4cc(-c5cnn(C)c5)c(C(F)F)cc43)nn2C2CCN(C(=O)CCCCCCCCN3CCC(c4ccc5c6c(cccc46)C(=O)N5C4CCC(=O)NC4=O)CC3)CC2)C1` (stereo not drawn) was run?
Answer: The DC50 was < 10 nM.

Question: What about the Emax [5] of the same compound?
Answer: The Emax was < 30%.

Question: And the Kd [2, 7]?
Answer: Its Kd is < 10 nM.

Question: With `O=C1CCC(N2C(=O)c3cccc4c(C5CCNCC5)ccc2c34)C(=O)N1` (stereo not drawn) as the compound, how does the IC50 [3] read?
Answer: Its IC50 is < 100 nM.

Question: What does the source list for `CNC(=O)N1CCc2c(c(N3CCCc4cc(-c5cnn(C)c5)c(C(F)F)cc43)nn2C2CCN(C(=O)CCCCCCCCN3CCC(Nc4ccc5c6c(cccc46)C(=O)N5C4CCC(=O)NC4=O)CC3)CC2)C1` (stereo not drawn)?
Answer: DC50 [5]: < 10 nM; Emax [5]: < 30%; Kd [2, 7]: < 10 nM
